Assay results reported in patent US5872126A, “Methods and compositions for treating preterm labor” (priority 1997, dated 1999).

System: serum progesterone
Test: Serum progesterone in pregnant rats (Example 3)
Assay type: in vivo, Sprague-Dawley rat
Details: 20 mg/kg/day
Experimental: In order to determine if the effects in the experiments conducted in Examples 1 and 2 were due to decreased progesterone catabolism associated with inhibition of 5α-reductase by the 5α-reductase type 1 inhibitor 3-oxo-4-aza-4,7β-dimethyl-16β-(4-chlorophenoxy)-5α-androstane ("test compound"), the following study was performed with the 5α-reductase inhibitor 3-oxo-4-aza-4,7β-dimethyl-16β-(4-chlorophenoxy)-5α-androstane and the progesterone antagonist RU-486.
Fifty-six pregnant female Sprague-Dawley rats (Charles River Laboratories, Raleigh, N.C.), approximately 10.5 weeks old weighing from 212 to 319 grams were employed in the study. They were fed and housed as described in EXAMPLE 1. The females were assigned to the following groups based on a weight independent random allocation scheme:
A dose of 10 mg/kg off RU-486 was selected based on the studies of Abdellilah et al., Progesterone and Mifepristone modify principally the response of circular myometrium to oxytocin in preparturient rats: comparison with response to acetylcholine and to calcium J. Pharmacol. and Exp. Therp.
The drugs were administered by oral gavage. The control article and vehicle consisted of 0.5% methylcellulose in deionized water with 0.02% sodium lauryl sulfate (SLS) and were prepared on a weekly basis and refrigerated when not in use. The test compound formulation (4 mg/mL, in vehicle) was prepared on a weekly basis and was refrigerated when not in use. The RU-486 formulation (2 mg base compound/mL, in 0.5% methylcellulose in deionized water) was prepared on a daily basis.

C[C@H]1C[C@H]2N(C)C(=O)CC[C@]2(C)[C@H]2CC[C@]3(C)C[C@@H](Oc4ccc(Cl)cc4)C[C@H]3[C@H]12 [test compound, 3-oxo-4-aza-4,7β-dimethyl-16β-(4-chlorophenoxy)-5α-androstane]
mean serum progesterone, times above control group 1 (GD 15): approximately 1.6 times | mean serum progesterone, times above control group 1 (GD 17): ~1.4 times | mean serum progesterone, times above control group 1 (GD 19): approximately 1.6 times | mean serum progesterone, times above control group 1 (GD 21): ~3.3 times | correlation of individual serum progesterone values on GD 21 and failure to initiate or complete parturition (Group 3): positive correlation
